Consider four compounds from patent US6531481B2 (priority 1998, dated 2003).

In one data set the test system is opioid receptors. As to the kind of experiment: Stimulation of [35S]GTPγS binding (agonist/antagonist activity). The class given is biochemical, guinea pig. Background: GTPγS is a poorly hydrolysed GTP analogue; its binding reports G protein activation.

Counter-ions that a name gives are not always drawn.

What is called melting point is the temperature of the solid-liquid transition. As for `C=CCN1CC[C@H](N(c2ccccc2)c2ccc(C(=O)N(CC)CC)cc2)[C@H](C)C1` (racemic) (as salt: hydrochloride), the melting point fell in the range of 221 to 225.5 °C.
`C=CCN1CC[C@@H](N(c2ccccc2)c2ccc(C(=O)N(CC)CC)cc2)[C@H](C)C1` (racemic) (as salt: hydrochloride) registered a melting point of 177 to 178 °C.
In the case of `CN1CCC2(c3cccc(O)c3)Cc3ccccc3CC2(C)C1` (racemic) [Compound 7, (±)-1,2,3,4,4a,5,10,10a-octahydro-4a-(3-hydroxyphenyl)-2,10a-dimethylbenzo-[g]isoquinoline], the “stimulation of [35S]GTPγS binding (agonist activity)” value in the data set on opioid receptors (concentrations as high as 1 μM) was “neither the N-methyl derivative 7 nor the N-phenethyl derivative 8 stimulated”.
For the compound `CC1C2CCCC1(c1cccc(O)c1)CCN2CCc1ccccc1` (stereo not drawn) [Compound 5c, 5-(3-Hydroxyphenyl)-9β-methyl-2-(2′-phenylethyl)-2-azabicyclo[3.3.1]nonane], in the data set on opioid receptors ([35S]GTPγS functional assay), the agonist/antagonist character result was “pure antagonists at the μ, δ, and κ opioid receptors”. Moreover, the “stimulation of GTP binding (agonist activity)” value in the data set on opioid receptors (up to concentrations of 10 μM) is “neither 5b nor 5c stimulated GTP binding”.
